Read-outs that look alike come from different tables or passages of the source. No end group written: not given here.

Data on 24 sequences can be found in patent US10654895B2, “Polypeptide, DNA molecule encoding the polypeptide, vector, preparation method and use” (WUHAN MORE BIOTECHNOLOGY CO., LTD., priority 2013, dated 2020).

In assay [1] the test system is Methicillin-resistant Staphylococcus aureus (MRSA). Particulars: Methicillin-resistant Staphylococcus aureus (Table 8).
The subject of a further assay is Pseudomonas aeruginosa. Particulars: Pseudomonas aeruginosa, strain not specified (Table 8).
The subject of assay [2] is Escherichia coli (E. coli) ATCC25922. As to conditions: >25 means greater than or equal to 50 μg/mL.
Assay [3] concerns Staphylococcus aureus (RA) ATCC25923. As to conditions: Staphylococcus aureus (RA) ATCC25923; >25 means greater than or equal to 50 μg/mL.
[4] abbreviates: Staphylococcus aureus (methicillin-sensitive), strain not specified (Table 8).
Setting [5] is: Escherichia coli, strain not specified (Table 8).
Where [6] appears, read: standard Staphylococcus aureus (Table 2).
The mark [7] stands for this setting: standard Escherichia coli (Table 2).

Consider “FIGAIARLLSKIF [BmKAMP1, reference compound]”, for which the “Minimum inhibitory concentration MIC” value with Staphylococcus aureus (setting [4]) is 3.13 µg/mL; in the assay with Escherichia coli (setting [5]) it was above 100 µg/mL; in assay [1] it was 12.5 µg/mL; in the assay on Pseudomonas aeruginosa, above 100 µg/mL.

As for FIHIAHLLRIF [Ctryamp-5, FIHIAHLLRIF], the “Minimum inhibitory concentration MIC” value in the assay on Staphylococcus aureus (setting [6]) is 12.5 µg/mL; in the assay with Escherichia coli (setting [7]), 6.25 µg/mL.

In the case of FIKIARLLRIF [Ctryamp-R3K, FIKIARLLRIF], the “Minimum inhibitory concentration MIC” value in the assay on Staphylococcus aureus (setting [6]) turned out to be 6.25 µg/mL; in the assay on Escherichia coli (setting [7]), 12.25 µg/mL.

As for FIRIAHLLRIF [Ctryamp-R5H, FIRIAHLLRIF], the “Minimum inhibitory concentration MIC” value in the assay on Staphylococcus aureus (setting [6]) was 6.25 µg/mL; in the assay with Escherichia coli (setting [7]), 12.5 µg/mL.

With FIRIARLLKIF [Ctryamp-R9K, FIRIARLLKIF], the figures for the “Minimum inhibitory concentration MIC” value with Staphylococcus aureus (setting [6]) and with Escherichia coli (setting [7]) were 6.25 µg/mL and 12.5 µg/mL, respectively.

For the sequence FIRIAKLLHIF [Ctryamp-8, FIRIAKLLHIF], the “Minimum inhibitory concentration MIC” value in the assay on Staphylococcus aureus (setting [6]) came out at 6.25 µg/mL; with Escherichia coli (setting [7]) it was 12.5 µg/mL.

FIRIAKLLRIF [Ctryamp-R5K, FIRIAKLLRIF]: the “Minimum inhibitory concentration MIC” value with Staphylococcus aureus (setting [6]) and with Escherichia coli (setting [7]) was 6.25 µg/mL each time.

As usually defined, the MIC is the lowest concentration found to suppress growth. “RIARLLRIFFIRIARLLRIF [Ctryamp polypeptide mutant 29]”: the MIC in assay [2] and in assay [3] was above 25 µg/mL each time.

In the case of “FIGAIARLLRKIF [ABP-W1, reference compound]”, the “Minimum inhibitory concentration MIC” value with Staphylococcus aureus (setting [4]) was 3.13 µg/mL; in the assay with Escherichia coli (setting [5]), above 100 µg/mL; in assay [1], 8 µg/mL; in the assay on Pseudomonas aeruginosa, above 100 µg/mL.

“FIRARLLRIF [Ctryamp polypeptide mutant 10, FIRARLLRIF]”: the MIC in assay [2] and in assay [3] was above 25 µg/mL throughout.

On to “FIRRLRIF [Ctryamp polypeptide mutant 13, FIRRLRIF]”, for which the minimum inhibitory concentration (MIC) in assay [2] and in assay [3] was above 25 µg/mL throughout.

As for FIRIAKLLKIF [Ctryamp-3, FIRIAKLLKIF], the MIC in assay [2] and in assay [3] was 12.5 µg/mL throughout. Besides, the entries for the “Minimum inhibitory concentration MIC” value with Staphylococcus aureus (setting [6]) and in the assay with Escherichia coli (setting [7]) were 6.25 µg/mL and 12.5 µg/mL, respectively.

Regarding FIHIARLLRIF [Ctryamp-R3H, FIHIARLLRIF], the “Minimum inhibitory concentration MIC” value in the assay on Staphylococcus aureus (setting [6]) and in the assay on Escherichia coli (setting [7]) was 6.25 µg/mL each time.

Take FIKIAKLLKIF [Ctryamp-4, FIKIAKLLKIF]: the MIC in assay [2] worked out at 12.5 µg/mL; in assay [3] it was 25 µg/mL. The “Minimum inhibitory concentration MIC” value in the assay on Staphylococcus aureus (setting [6]) was 12.5 µg/mL; with Escherichia coli (setting [7]), 6.25 µg/mL.

Turning to FIKIARLLKIF [Ctryamp-2, FIKIARLLKIF], the MIC in assay [2] and in assay [3] was 12.5 µg/mL throughout. Besides, the “Minimum inhibitory concentration MIC” value in the assay on Staphylococcus aureus (setting [6]) was 12.5 µg/mL; in the assay with Escherichia coli (setting [7]), 6.25 µg/mL.

Consider FIHIARLLHIF [Ctryamp-6, FIHIARLLHIF], for which the “Minimum inhibitory concentration MIC” value in the assay with Staphylococcus aureus (setting [6]) and in the assay on Escherichia coli (setting [7]) was 6.25 µg/mL each time.

For FIRIARLLHIF [Ctryamp-R9H, FIRIARLLHIF], the “Minimum inhibitory concentration MIC” value with Staphylococcus aureus (setting [6]) and with Escherichia coli (setting [7]) was 6.25 µg/mL each time.

For the sequence FIKIAKLLRIF [Ctryamp-1, FIKIAKLLRIF], the “Minimum inhibitory concentration MIC” value with Staphylococcus aureus (setting [6]) and in the assay on Escherichia coli (setting [7]) was 6.25 µg/mL in each case.

“LLRIFFIRIARLLRIF [Ctryamp polypeptide mutant 25, LLRIFFIRIARLLRIF]”: the minimum inhibitory concentration (MIC) in assay [2] is above 25 µg/mL; in assay [3] it was 25 µg/mL.

In the case of “FIKRIARLLRKIF [BmKAMP1-M, reference compound]”, the “Minimum inhibitory concentration MIC” value in the assay with Staphylococcus aureus (setting [4]) amounted to 12.5 µg/mL; with Escherichia coli (setting [5]), 12.5 µg/mL; in assay [1], 6.25 µg/mL; with Pseudomonas aeruginosa it was 50 µg/mL.

With “FIRIARLLKRIF [Ctryamp polypeptide mutant 18, FIRIARLLKRIF]”, the MIC in assay [2] came to 12.5 µg/mL; in assay [3], 6.25 µg/mL.

“FIRIADLLRIF [Ctryamp polypeptide mutant 2, FIRIADLLRIF]”: the minimal inhibitory concentration (MIC) was above 25 µg/mL in assay [2] and 25 µg/mL in assay [3].

On to “FRIARLLRIF [Ctryamp polypeptide mutant 9, FRIARLLRIF]”, for which the MIC in assay [2] stood at 6.25 µg/mL; in assay [3], 12.5 µg/mL.

Turning to FIHIAKLLRIF [Ctryamp-7, FIHIAKLLRIF], the “Minimum inhibitory concentration MIC” value with Staphylococcus aureus (setting [6]) was 6.25 µg/mL; in the assay on Escherichia coli (setting [7]) it was 12.5 µg/mL.
